Entries after “also recorded” stand apart in the source; their conditions may differ. No end group written: not given here.
How the values were obtained:
[1] = system: Lactococcus lactis LMG IL 1403; settings: cited from earlier work
[2] = system: S. epidermidis ATCC 12228; assay: MIC assay in liquid culture (endpoint OD600); format: cell-based, Staphylococcus epidermidis; settings: tested concentrations 0.24 to 250 μg/ml
Experimental: (§1) Bacterial strains were grown overnight in liquid culture on rotary shakers or on agar plates using M17 media supplemented with 0.5% glucose. S. aureus ATCC 6538 and S. epidermidis ATCC 12228 liquid cultures and agar plates were grown anaerobically at 37° C. Culture volume utilized in MIC assays was 200 μl.
(§2) Determination of MIC values of a cerein 7B peptide (SEQ ID NO: 2) was performed in liquid cultures of S. aureus ATCC 6538 and S. epidermidis ATCC 12228. Growth was assessed by measuring endpoint OD600 values in a Spectramax i3 (Molecular Devices, CA, USA). Minimum inhibitory concentration (MIC) was defined as the lowest concentration which inhibited 50% of the growth of cultures as compared to reference cultures not exposed to the peptide. Concentration of the peptide was 250 μg/ml in well 11, diluted 2-fold per subsequent well as shown in Table 3 (concentrations rounded to the second decimal): […]

[3] = system: S. epidermidis ATCC 12228; assay: Antimicrobial activity test on inoculated M17 agar plates (inhibition halo); format: cell-based, Staphylococcus epidermidis; settings: 2 μl of aqueous solution, 1 mg/ml, overnight incubation
Experimental: as §1
(§3) Antimicrobial activity of bacteriocin peptides was tested on M17 agar plates in Examples 1 and 3.
(§4) In Example 1, 2 μl of cerein 7B peptide (SEQ ID NO: 2) aqueous solutions at a concentration of 1 mg/ml were deposited on inoculated M17 agar plates of S. aureus ATCC 6538 and S. epidermidis ATCC 12228. In the case of S. epidermidis ATCC 12228, an equivalent amount of aureocin A53 aqueous solution (1 mg/ml concentration) was used as positive control.

S. aureus ATCC 6538 [4] = assay: MIC assay in liquid culture (endpoint OD600); format: cell-based, Staphylococcus aureus; settings: liquid culture 200 μl, M17 + 0.5% glucose, 37° C., overnight, 2-fold dilutions from 250 μg/ml
Experimental: as §1, §2

S. aureus ATCC 6538 [5] = assay: Antimicrobial activity test on inoculated M17 agar plates (inhibition halo); format: cell-based, Staphylococcus aureus; settings: 1 mg/ml, overnight incubation
Experimental: as §1, §3, §4
In Example 3, 5 μl of bacteriocin peptides (SEQ ID NO: 2, 4-51) aqueous solutions at a concentration of 1 mg/ml were deposited on inoculated M17 agar plates of S. aureus ATCC 6538. After overnight incubation, the presence of an inhibition halo was considered as a positive result of antimicrobial activity.

Row | Substance | activity against Lactococcus lactis LMG IL 1403 [1] | growth inhibition in MIC assay [2] | inhibition halo (antimicrobial activity on agar plate) [3] | MIC (lowest concentration which inhibited 50% of the growth of cultures) (S. aureus ATCC 6538 [4]) [µg/mL] | inhibition halo (antimicrobial activity on agar plate) (S. aureus ATCC 6538 [5]; 2 μl of aqueous solution, chemically synthesized peptide) | antimicrobial activity of mutants (inhibition halo) (S. aureus ATCC 6538 [5]; 5 μl of aqueous solution, M17 agar plate, peptides synthesized in vitro (PURExpress))
1 | GWWNSWGKCVAGTIGGAGTGGLGGAAAGSAVPVIGTGIGGAIGGVSGGLTGAATFC (cysteines drawn unpaired) [cerein 7B] | demonstrated its activity | No growth inhibition was observed | no inhibition halo was visible; also recorded: no inhibition halo was present | 15.63 | An inhibition halo was visible | 
2 | GWWNSWGKCVAGTIGGAGTGGLGGAAAGSAVPVIGTGIGGAIGGVSGGLTGAATFCW (mutant 48 (E2)) [SEQ ID NO: 51] |  |  |  |  |  | did not compromise its antimicrobial activity
3 | aureocin A53 [reference compound] |  |  | an inhibition halo was present |  |  | 

Reference: US20240197820A1, “Bacteriocin for new application” (priority 2021, published 2024)
